The text below walks through data of patent US20050244936A1, “Hydantoin-racemase” (DEGUSSA AG, priority 1999, published 2005).

SMILES strings stand for the structures.

In one series the test system is HyuA. Description: Substrate specificity of HyuA: racemization of 5-substituted hydantoins by ORD polarimetry. The format is biochemical, Arthrobacter aurescens DSM 3747. The note with it: substrate conc. 0.9 mM; 100% racemase activity corresponds to 313 μ/mg by standard assay. The protocol:
Racemization of the 5-substituted hydantoins BH, IMH and MTEH by HyuA was examined (Tab. 2).
Enzyme assays. Racemization of L-BH was measured by ORD-polarimerty (Model 341, Perkin Elmer Bodenseewerk, Überlingen, Germany) at a wavelength of 295 nm in the standard assay for racemase enzyme activity. 3 MM L-BH was dissolved in 0.1 M Tris, pH 3 at 45° C. in an ultrasonic waterbath, cooled to room temperature and the pH adjusted to pH 8.5 with 3 M NaOH. To 1 ml substrate solution 0.1 ml enzyme, diluted in 0.1 M Tris, pH 8.5, was added and the change in optical rotation determined at 37° C. by polarimetry (Teves et al., Fresenius' J. Anal. Chem. 1999, 363, 738-743). The racemization of MTEH and IMH by. HyuA was determined at substrate concentrations of 0.9 mM and recorded by ORD at 253 nm and 334 nm. The specific activities were calculated from initial reaction rates which were determined according to Teves et al. (1999). For determination of enzyme activity by HPLC, 1 mM L-IMH was dissolved as described above. The mixture containing 900 μl enzyme solution was incubated 5 min at 37° C. The reaction was stopped by addition of 400 μl 14% trichloroacetic acid and centrifugation in an Eppendorf centrifuge at full speed. 100 μl of the sample were diluted with 0.9 ml 0.1 M TrisHCl, pH 8.5, and D-IMH and L-IMH in the supernatant were separated by HPLC (Thermoseparation Products, Darmstadt, Germany) by injection of 20 μl sample into a Chiralpak WH-column (0.46×25 cm; Daicel Chemicals Industris LTD, Griesheim, Germany). The column was equilibrated with 0.25 mM CuSO4, pH 5.5. The flow rate was 1 ml/min at 50° C. and IMH detected at 254 nm. The chemical racemization of the substrate was taken into account. Racemization of […] substrate per minute was defined as one unit enzyme.

The conditions of series [1]: room temperature, pH 8.5, 20 hour; cited from earlier work.
In another series the test system is racemase HyuA. Description: Initial velocities at different concentrations of L-MTEH (kinetic plot). The note with it: FIG. 6. The format is biochemical, Arthrobacter aurescens DSM 3747. The protocol:
The KM values of IMH and BH could not be determined due to the limited solubility of the substrates. Instead the initial velocities at different concentrations of L-MTEH were measured. […] Even at low substrate concentrations (>5 mM) inhibition is observed.
Enzyme assays. Racemization of L-BH was measured by ORD-polarimerty (Model 341, Perkin Elmer Bodenseewerk, Überlingen, Germany) at a wavelength of 295 nm in the standard assay for racemase enzyme activity. 3 MM L-BH was dissolved in 0.1 M Tris, pH 3 at 45° C. in an ultrasonic waterbath, cooled to room temperature and the pH adjusted to pH 8.5 with 3 M NaOH. To 1 ml substrate solution 0.1 ml enzyme, diluted in 0.1 M Tris, pH 8.5, was added and the change in optical rotation determined at 37° C. by polarimetry (Teves et al., Fresenius' J. Anal. Chem. 1999, 363, 738-743). The racemization of MTEH and IMH by. HyuA was determined at substrate concentrations of 0.9 mM and recorded by ORD at 253 nm and 334 nm. The specific activities were calculated from initial reaction rates which were determined according to Teves et al. (1999). For determination of enzyme activity by HPLC, 1 mM L-IMH was dissolved as described above. The mixture containing 900 μl enzyme solution was incubated 5 min at 37° C. […] The flow rate was 1 ml/min at 50° C. and IMH detected at 254 nm. […]

Turning to `O=C1NC(=O)[C@@H](Cc2ccccc2)N1` [D-BH, D-Benzylhydantoin], in the series on HyuA, the “Relative Activity” value was 95%. With `O=C1NC(=O)[C@@H](Cc2c[nH]c3ccccc23)N1` [D-IMH], the “Relative Activity” value in the series on HyuA is 12%. Turning to `CSCCC1NC(=O)NC1=O` [D-MTEH], the “Relative Activity” value in the series with HyuA is 8%. Regarding `O=C1NC(=O)[C@H](Cc2c[nH]c3ccccc23)N1` [L-IMH], in the series on HyuA, the “Relative Activity” value is on record as 13%. Besides, the “fraction racemized to D-IMH (chemical racemization)” value in series [1] was “about 10%”. As for `CSCCC1NC(=O)NC1=O` [L-MTEH], the “Relative Activity” value in the series with HyuA was 7%. In addition, the “substrate concentration at which inhibition of the racemase is observed” value with racemase HyuA is greater than 5 mM.
